Earlier results as cited in US5891887A, “Use of [R-(Z)]-α-(methoxyimino)-α-(1-azabicyclo [2.2.2.]oct-3-yl)acetonitrile to reduce amyloid βA4 formation in alzheimer's disease” (priority 1994, dated 1999).

System: m1 and/or m3 receptor subtypes
Conditions: by activation of m1 and/or m3 receptor subtypes; literature

Compound	Production of non-amyloidogenic APP fragments
CC(C[N+](C)(C)C)OC(N)=O (stereo not drawn) [bethanechol]	enhance
CC1OC2(CS1)CN1CCC2CC1 (stereo not drawn) [AF-102B]	enhance
CCCCCCOc1nsnc1C1=CCCN(C)C1 [xanomeline]	enhance
